Reference: PubChem BioAssay (NCI)
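Interpolation was linear, between the two tested concentrations surrounding the appropriate level; five concentrations were tested over 48 hours in 96-well plates. GI50 is the concentration that inhibits growth by half. Definition used: TGI = concentration required for complete inhibition of growth.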

Key:
Assay in all cases: DTP human tumour cell line panel, 48 h
[1] = test system: MCF7 breast
[2] = test system: HOP-62 NSCLC
[3] = test system: NCI-H23 lung
[4] = test system: OVCAR-8 ovarian
[5] = test system: NCI/ADR-RES ovarian
[6] = test system: EKVX NSCLC
[7] = test system: HCC-2998 colon
[8] = test system: SK-MEL-5 melanoma
[9] = test system: COLO 205 colon
[10] = test system: A498 renal

`O=C1/C(=C\c2cccn2Cc2ccccc2)c2ccccc2N1c1c(Cl)cccc1Cl` was tested. Which GI50 [1] did it give?
Its GI50 is 0.0898 µM.

And the TGI [1]?
The TGI was > 100 µM.

And the GI50 [2]?
Its GI50 is > 100 µM.

What about the TGI [2] of the same molecule?
The TGI was > 100 µM.

And the GI50 [3]?
Its GI50 is > 63 µM.

And the TGI [3]?
Its TGI is > 100 µM.

And the GI50 [4]?
The GI50 was > 100 µM.

And the TGI [4]?
The TGI was > 100 µM.

And the GI50 [5]?
The GI50 was > 100 µM.

What about the TGI [5] of the same molecule?
The TGI was > 100 µM.

What about the GI50 [6] of the same molecule?
The GI50 was 1.42 µM.

And the TGI [6]?
The TGI was > 28.1 µM.

What about the GI50 [7] of the same molecule?
Its GI50 is 1.83 µM.

What about the TGI [7] of the same molecule?
The TGI was > 100 µM.

And the GI50 [8]?
Its GI50 is 3.02 µM.

What about the TGI [8] of the same molecule?
The TGI was > 100 µM.

What about the GI50 [9] of the same molecule?
Its GI50 is 1.36 µM.

And the TGI [9]?
The TGI was 6.26 µM.

What about the GI50 [10] of the same molecule?
Its GI50 is > 100 µM.

And the TGI [10]?
The TGI was > 100 µM.

Which results are given for `Fc1ccc(Nc2cc(-n3nnc4ccccc43)nc3ccccc23)cc1`?
GI50 [1]: 29.8 µM; TGI [1]: > 84.4 µM; GI50 [2]: 13.8 µM; TGI [2]: > 34 µM; GI50 [3]: 49.2 µM; TGI [3]: > 100 µM; GI50 [4]: 22.2 µM; TGI [4]: > 79 µM; GI50 [5]: 56.3 µM; TGI [5]: > 100 µM; GI50 [6]: 31.8 µM; TGI [6]: > 82.6 µM; GI50 [7]: > 100 µM; TGI [7]: > 100 µM; GI50 [8]: 32.2 µM; TGI [8]: > 100 µM; GI50 [9]: 5.74 µM; TGI [9]: > 100 µM; GI50 [10]: 56.4 µM; TGI [10]: > 100 µM
